Assay results as given in publication PMC3396687, “Moonlighting Peptides with Emerging Function” (PLoS ONE, 2012).
Read-outs that look alike come from different tables or passages of the source. Where no end group is shown, it is not given here.

Experiments:
[1] = test system: S. cerevisiae WT (BY4741); test: Area under the growth curve (AUC), wild type control of gene screen; format: cell-based, Saccharomyces cerevisiae; settings: 10 µM peptide, 24 h growth curve; control value of Figure S1
Protocol: (§1) An early stationary culture for every essay was obtained from a single colony growing overnight in YPD medium. This culture was used to inoculate a fresh YPD medium to reach 0.04 O.D. in a total volume of 200 µL. Every peptide and strain were tested in 96 well plates, each well containing 200 µL, incubating at 30°C with shaking using a Bioscreen C (Oy Growth Curves Ab Ltd, Finland). The activity of these peptides on each strain was determined by following the cultures during 24 hrs and recording the O.D. every hour. Lack of change in O.D. measured during 24 hours was indicative of antifungal activity.
(§2) The cultures were prepared as in the antifungal activity assay described before (see above). To identify the strains lacking a gene required to inhibit in at least 50% the normal growth of the cells, the area under the growth curve (AUC) was calculated using software designed ad hoc in our laboratory. Thus, the ratio of the AUCs of the cells in the absence and in the presence of the peptide was determined; any strain rendering a ratio value between 1.0 and 2.0 was considered to carry a deletion of a critical gene.

[2] = test system: Human foreskin fibroblasts (HFF) cells; test: Toxicity against primary cultures of human cells (LIVE/DEAD)
Protocol: Human foreskin fibroblasts (HFF) cells were grown in high glucose DMEM (Invitrogen, Carlsbad, CA) supplemented with 10% fetal bovine serum (Sigma, St. Louis, MO) and penicillin/streptomycin 100 U/ml (Invitrogen, Carlsbad, CA). The cultures were incubated at 37 °C in 95% air and 5% carbon dioxide with 95% humidity. After 24 hr of plating, 15 micro liters of a stock solution of each peptide was added and 72 hr later cell viability was estimated using the LIVE/DEAD cytotoxicity kit (Molecular Probes L-3224, Invitrogen, Carlsbad, CA) according to manufacturer instructions (4 μM Eth D-1 and 2 μM Calcein AM were used). The esterase substrate calcein AM gives a green fluorescent product when hydrolyzed; therefore, cells stained green have esterase activity and consequently an intact membrane capable of retaining the esterase product. Ethidium homodimer-1, an impermeable dye that binds DNA, enters only into compromised cellular membranes commonly observed in death cells.
All these concentrations are the dry weight of each peptide.
Images were taken on a Nikon Eclipse TE300 fluorescence microscope from representative fields. Each peptide was tested in two independent assays, each performed in triplicates.

[3] = test system: null mutant of the STE4 gene (BY4741 MATa ∆ste4); test: Screening for resistant gene deletions: STE4 null mutant; format: cell-based, Saccharomyces cerevisiae; settings: 10 µM, Table S1 and Figure S1
Protocol: as §1, §2

E. coli (DH10B) = format: cell-based, Escherichia coli; settings: for antibacterial activity (in words): LB, see Table S2, Figure 1A and 1B; for MIC: LB medium, 37°C, 10 h, OD 600 nm, lowest concentration where no visible growth occurred, four independent experiments
Protocol: To evaluate the antibacterial activity of the Iztli peptides, the Escherichia coli DH1OB strain, Δ(mrr-hsd RMS-mcrBC) mcrA recA1 was used.
Serial dilutions of peptides were prepared in sterilized water. These concentrations are reported as the dry weight of each peptide. To determine the actual concentration of these peptides in solution, we estimated the molar absorption coefficient from the absorbance of each peptide at 214 nm using a spectrophotometer HP8452, kindly provided by Dr. Armando Gomez-Puyou. Then, the concentration of each peptide was calculated as: C = A/(L*MAC); where C: concentration (M), A: absorbance (arbitrary unit), L: length of the path of the spectrophotometer cell (cm) and MAC: the molar absorption coefficient (M^−1cm^−1).
The antibacterial activity of the synthetic peptides was examined in sterile 100-well plates (HC2 Pat. Pend., Finland) in a final volume of 200 µl as follows: aliquots (25 µl) of a suspension containing bacteria at a concentration of 10^5 CFU/mL in LB medium were added to 75 µl of water containing the peptide. The mixture was completed by the addition of 100 µl of 2×-concentrated LB medium. The plates were incubated at 37°C with constant orbital shaking for 10 h (at a rate specified by the equipment provider as “High”). Microbial growth was automatically determined by reading every 60 minutes the optical density at 600 nm with an OY Microplate Reader (Bioscreen C, Finland).
The minimum inhibitory concentration (MIC) was determined as the lowest concentration where no visible growth occurred. At least three different concentrations were tested for each peptide to find the corresponding MIC. All MICs were determined from four independent experiments. […]

human cells = settings: cited from earlier work
From the text: Supplement pone.0040125.s019.doc, table 1: Supplementary Table S2. Designed selective antibacterial peptides | column: Toxicity (µM)

bacteria = settings: values marked (*), ref 36 ([3] in supplement, del Rio et al., 2001); cited from earlier work
From the text: Supplement pone.0040125.s019.doc, table 1: Supplementary Table S2. Designed selective antibacterial peptides | column: MIC (µM)

[4] = test system: MatA cells from Saccharomyces cerevisiae (BY4741); test: Antifungal activity (optical density growth curves); format: cell-based; settings: YPD, 30°C, 24 h, OD and CFU; IP1 10 µM, fIP1 60 µM (Figure 3)
Protocol: as §1

isolated mitochondria = test: Mitochondrial swelling; format: biochemical, Saccharomyces cerevisiae; settings: absorbance at 540 nm; IP1 117 µM, fIP1 100 µM, α-pheromone 160 µM (Figure 1C)
Protocol: We isolated mitochondria as described in Supporting Information S1 (see section I.2). Swelling of mitochondria was determined as reported before. Briefly, fresh mitochondria were diluted in 1 mL of 0.3 M mannitol, 5 mM MES, pH 6.8 (TEA) and 5 µL of ethanol. After 20 seconds, when optical density was stable, the peptides were added. The absorbance at 540 nm was recorded in a DW2 Aminco spectrophotometer (Olis, Inc, USA) in a split mode with magnetic stirring. A decrease in the absorbance was indicative of mitochondrial swelling. To determine the integrity of mitochondrial membranes, 10% of PEG 10 kDa (final concentration) was used to induce water release from mitochondria.
Mitochondria were obtained as described before. Briefly, yeast was incubated in YPD preculture medium for 24 h at 30° C, with agitation at 250 rpm, then the cells were cultured in YPlac at 30° C for 24 h at 250 rpm to improve respiration. Cells were collected and washed twice by centrifugation. The cells were suspended in cold isolating medium (5 mM MES, 0.6 M mannitol, 0.1% bovine serum albumin; the pH was adjusted to 6.8 with triethanolamine). The cells were disrupted into a Bead-Beater cell homogenizer (Biospec Products, USA) with 0.5 mm diameter glass beads, using three 20 seconds pulses separated by 40 seconds intervals. […] Protein concentration was determined by the Biuret method.

[5] = 72 hr exposure, calcein AM / ethidium homodimer-1 staining
[6] = HFF cells, 72 hr exposure, LIVE/DEAD kit, > means no toxicity at the tested concentration, two independent assays in triplicates

For `CSCC[C@H](NC(=O)[C@@H]1CCCN1C(=O)[C@H](CCC(N)=O)NC(=O)CNC(=O)[C@@H]1CCCN1C(=O)[C@H](CCCCN)NC(=O)[C@H](CC(C)C)NC(=O)[C@H](CCC(N)=O)NC(=O)[C@H](CC(C)C)NC(=O)[C@H](Cc1c[nH]c2ccccc12)NC(=O)[C@H](Cc1c[nH]cn1)NC(=O)[C@H](Cc1c[nH]c2ccccc12)NC(=O)[C@H](Cc1ccccc1)NC(=O)[C@H](CCCNC(=N)N)NC(=O)[C@H](CC(N)=O)NC(=O)[C@H](CC(C)C)NC(=O)[C@H](Cc1ccccc1)NC(=O)[C@@H](N)CCCCN)C(=O)N[C@@H](Cc1ccc(O)cc1)C(=O)O` [IP1], the “area under the growth curve (AUC)” value [1] was 0.09, the “toxicity on HFF cells (in words)” value [2, 5] was “no toxicity” and the “killing activity on STE4 null mutant” value [3] was “resistant”. For the same compound, the “antibacterial activity (in words)” value (E. coli (DH10B)) was “presented anti-bacterial activity”.
With FLHSAKKF [PH(SCAP*)4] the “toxicity on HFF cells (in words)” value [2, 5] was “not toxic”, the Toxicity [2, 6] was greater than 500 µM and the MIC (E. coli (DH10B)) was greater than 300 µM.
In the case of GIGKFLHSAKKFGKAFVGEIMNS [Magainin 2], the Toxicity (human cells) is listed as greater than 170 µM and the MIC (bacteria) is listed as 16 µM.
In the case of GKFLHSAK [PH(SCAP*)2], the “toxicity on HFF cells (in words)” value [2, 5] is reported as “not toxic”, the Toxicity [2, 6] is reported as greater than 500 µM and the MIC (E. coli (DH10B)) is reported as greater than 300 µM.
For GKFLHSAKKFGK [PH(SCAP*)6], the “toxicity on HFF cells (in words)” value [2, 5] was “not toxic”, the Toxicity [2, 6] was greater than 500 µM and the MIC (E. coli (DH10B)) was greater than 300 µM.
With HSAKKFGK [PH(SCAP*)5] the “toxicity on HFF cells (in words)” value [2, 5] was “not toxic”, the Toxicity [2, 6] was greater than 500 µM and the MIC (E. coli (DH10B)) was greater than 300 µM.
In the case of KFLHSAKK [PH(SCAP*)3], the “toxicity on HFF cells (in words)” value [2, 5] is reported as “not toxic”, the Toxicity [2, 6] is reported as greater than 500 µM and the MIC (E. coli (DH10B)) is reported as greater than 300 µM.
For “KFLNRF [fIP1, the six residues at the N-terminus of IP1, control peptide]”, the “antifungal (killing) activity” value [4] was “did not exhibit any activity” and the mitochondrial swelling activity (isolated mitochondria) was “did not exhibit any activity”.
For KWKLFKKI [PH(SCAP*)1], the “toxicity on HFF cells (in words)” value [2, 5] was “not toxic” and the Toxicity [2, 6] was greater than 460 µM.
In the case of “KWKLFKKIEKVGQNIRDGIIKAGPAVAVVGQATQIAK (Cecropin-A; UniProt P01507 27-63, looked up) [Cecropin A]”, the Toxicity (human cells) is listed as greater than 50 µM and the MIC (bacteria) is listed as 0.1 µM.
In the case of LKKLKLLLKLL [PH(CeMa)1], the Toxicity [2] is reported as greater than 90 µM and the “toxicity on HFF cells (in words)” value [2] is reported as “none of the peptides induced cell death”.
With LKKLLKLLL [PH(Magainin)1] the Toxicity [2] was greater than 120 µM and the “toxicity on HFF cells (in words)” value [2] was “none of the peptides induced cell death”.
In the case of “RRLKDFWHWLQLKPGQPMY [IP2, 19-residue Iztli peptide: α-pheromone with 6 residues added at the N-terminus]”, the Toxicity [2] is reported as greater than 36 µM, the “toxicity on HFF cells (in words)” value [2] is reported as “no toxicity” and the MIC (E. coli (DH10B)) is reported as 20 µM. For the same compound, the “antibacterial activity (in words)” value (E. coli (DH10B)) was “presented anti-bacterial activity”.
